The text below walks through data of patent US8445532B2, “Use of phthalide derivatives” (priority 2005, dated 2013).

Each structure is given as a SMILES string. In brackets after ≈: the same amount, converted by molar mass. Where two headings read alike, the source gives them in different places.

The IC50 is the point on the concentration scale where inhibition reaches its midpoint.

Holding throughout (assay type): cell-based, human
The test system of one assay is KBv200. Briefly: MTT drug resistance determination to conventional chemotherapeutic drugs. The conditions noted are these: for RF (drug resistant factor): IC50 KBv200 / IC50 KB; for IC50: KBv200, drug alone, 68 h, MTT. From the text:
(§1) The following cell lines were used: K562 (human chronic myeloid leukemia cell line) and K562/Adr (a cell line with drug-resistance to chemotherapeutic drugs such as Adriamycin induced by a long-term exposure to a low dosage of Adriamycin); KB (human oral epithelia cell line) and KBv200 (a cell line with drug-resistance to chemotherapeutic drugs such as Vincristine induced by a long-term exposure to a low dosage of Vincristine); MCF-7 (human mammary cancer cell line) and MCF-7/Adr (a cell line with drug-resistance to chemotherapeutic drugs such as Adriamycin induced by a long-term exposure to a low dosage of Adriamycin). All the cell lines mentioned above were purchased from Institute of Hematology, Chinese Academy of Medical Sciences.
The multi-drug resistant cell line, of KBv200 is also mainly characterized by the concurrency of multiple resistant mechanisms including the increased expression of P-gp and Bcl-2 family proteins, and the enhanced activity of glyoxalase I, etc. KBv200 is resistant to Vincristine more than 100 folds in comparison with KB, and cross-resistant to […], Daunomycin, Mitoxantrone, Taxol, etc.
(§2) Half-inhibitory concentration (IC50) was calculated by the GraphPad Prism software (San Diego, Calif.). Drug reaction was analyzed by Sigmoldal non-linear regression model.
(§3) The cells at logarithmic phase were collected and added into RPMI 1640 medium (containing 10% fetal bovine serum) to prepare a cell suspension. Then the cell suspension was plated onto a 96-well plate at 100 μl per well (1×10^4 cell/well). Adriamycin, Vincristine, Taxol, cisplatin of different concentration gradients were directly added to the semi-suspending cells (K562 and K562/Adr). The adherent cells were cultured for 24 hours after inoculation so that they could adhere completely, and then the drugs mentioned above in different concentrations were added. There were six parallel repeated wells for every concentration gradient. The medium was added up to a final volume of 200 μl per well. The cells were cultured at the condition of 37° C., saturated humidity, 5% CO2 for 68 hours. 50 μl MTT (2 mg/mL) per well was added. The 96-well plate was centrifuged and the supernatant was removed. Then 120 μl DMSO per well was added and vibrated by vibrator. The OD value was determined at a wavelength of 590 nm by enzyme labeling instrument after the crystal was dissolved completely.
(§4) The calculating method: IC50=drug concentration when the inhibitory rate was 50%.
(§5) Drug resistant factor (RF)=the IC50 of the drug resistant cells/the IC50 of the sensitive cells.

The subject of a further assay is MCF-7/Adr. The assay is described as above. As to conditions: for RF (drug resistant factor): IC50 MCF-7/Adr / IC50 MCF-7; for IC50: MCF-7/Adr, drug alone, 68 h, MTT.
Excerpt: as §1
Similarly, the multi-drug resistant cell line of MCF-7/Adr is also mainly characterized by the concurrency of multiple resistant mechanisms including the increased expression of P-gp and Bcl-2 family proteins, and the enhanced activity of glyoxalase I, etc.
as §2, §3, §4, §5

In the next assay the test system is KB. The description is as above. As to conditions: drug alone, 68 h.
Excerpt: as §1, §2, §3, §4, §5

In a further assay the test system is MCF-7. The description is as above. As to conditions: 68 h.
Excerpt: as §1, §2, §3, §4, §5

In a further assay the test system is K562. The description is as above. As to conditions: K562, drug alone, 68 h.
Excerpt: as §1, §2, §3, §4, §5

The next assay has as its system K562/Adr cells. In words: Sensitizing effect of PA to conventional chemotherapeutic drugs (MTT). As to conditions: drug alone, 68 h; for IC50: Homo sapiens, read-out: IC50 of anti-tumor drug, Ctrl (without PA). The procedure:
(§6) The cells at logarithmic phase were collected and added into RPMI 1640 medium (containing 10% fetal bovine serum) to make cell suspensions. The cell suspension was added to 96-well plate at 100 μl per well, and the cell number was 2×10^3 (suspending cells) or 1×10^3 (adherent cells) per well. After inoculation, the suspending cells were adapted for half an hour on the plate and the adherent cells were cultivated to allow adhesion before the drugs were added. The control groups (Ctrl) were added with anti-tumor drugs but without PA. The drug concentration of each PA group was 10 μg/mL. The concentrations of chemotherapeutic drugs increased from 0.001 μg/mL to 20 μg/mL. There Were six parallel repeated wells for every concentration gradient. RPMI 1640 was added up to a finally volume of 200 μl per well. The cells were cultured at the condition of 37° C., saturated humidity, 5% CO2 for 68 hours. The MTT was determined and the IC50 was calculated as in example 4.
(§7) The formula of resistant factor: Resistant Factor (RF)=the IC50 without sensitizer/the IC50 with sensitizer.

A further assay concerns MCF-7/Adr cells. The assay is described as above. As to conditions: drug alone, 68 h; for IC50: Homo sapiens, NCI/ADR-RES, read-out: IC50 of anti-tumor drug, Ctrl (without PA). On the procedure:
as §6, §7

The subject of another assay is KBv200 cells. The description is as above. The conditions noted are these: KBv200, drug alone, 68 h; for IC50: Homo sapiens, read-out: IC50 of anti-tumor drug, Ctrl (without PA). On the procedure:
as §6, §7

The subject of the next assay is K562/Adr. Briefly: MTT drug resistance determination to conventional chemotherapeutic drugs. As to conditions: for RF (drug resistant factor): IC50 K562/Adr / IC50 K562; for IC50: K562/Adr, drug alone, 68 h, MTT.
Excerpt: as §1
The multi-drug resistant cell line of K562/Adr is mainly characterized by the concurrency of multiple resistant mechanisms including the increased expression of P-gp and Bcl-2 family proteins, and the enhanced activity of glyoxalase I, etc. K562/Adr is resistant to Adriamycin 20 folds more than K562, and cross-resistant to Vincristine, Daunomycin, Mitoxantrone, Taxol, etc.
as §2, §3, §4, §5

Where [1] appears, read: Homo sapiens, NCI/ADR-RES, read-out: IC50.
Setting [2] is: Homo sapiens, MCF7, MCF-7, drug alone, read-out: IC50.

Consider `N.N.[Cl][Pt][Cl]` [DDP, Cisplatin], for which the “RF (drug resistant factor)” value is reported as 14.13 with KBv200, 11.38 in the assay with MCF-7/Adr and 4.727 with K562/Adr. The IC50 in the assay on KBv200 worked out at 7.785 ± 0.6536 µg/mL; in the assay on MCF-7/Adr, 7.342 ± 0.764 µg/mL; in the assay with KB, 0.5509 ± 0.094 µg/mL; in the assay on MCF-7 (MCF-7, drug alone) it was 0.6453 ± 0.1675 µg/mL; in the assay on K562, 0.2274 ± 0.078 µg/mL; in the assay with K562/Adr it was 1.075 ± 0.5646 µg/mL. For the same molecule, the “IC50 of anti-tumor drug, Ctrl (without PA)” value in the assay with K562/Adr cells (in µg/mL) came out at 5.311 ± 0.4429; in the assay with MCF-7/Adr cells (in µg/mL) it was 7.708 ± 1.077; in the assay on KBv200 cells (in µg/mL) it was 5.868 ± 0.2438.

Regarding `COc1cccc2c1C(=O)c1c(O)c3c(c(O)c1C2=O)C[C@@](O)(C(=O)CO)C[C@@H]3O[C@H]1C[C@H](N)[C@H](O)[C@H](C)O1` [Adr, doxorubicin], the IC50 is 16.3 ± 1.03 µg/mL (≈ 30 µM) with KBv200 (Homo sapiens, read-out: IC50); 19 ± 0.67 µg/mL (≈ 34.9 µM) in the assay with MCF-7/Adr (setting [1]); 0.49 ± 0.176 µg/mL (≈ 0.902 µM) with KB (Homo sapiens, read-out: IC50); 0.312 ± 0.143 µg/mL (≈ 0.574 µM) in the assay with MCF-7 (setting [2]); 0.215 ± 0.152 µg/mL (≈ 0.396 µM) in the assay with K562 (Homo sapiens, read-out: IC50); 7.67 ± 0.16 µg/mL in the assay on K562/Adr cells. The IC50 with MCF-7/Adr cells was 6.32 ± 0.775 µg/mL; in the assay with KBv200 cells it was 4.39 ± 0.336 µg/mL; with K562/Adr (Homo sapiens, read-out: IC50) it was 14.1 ± 0.35 µg/mL (≈ 25.9 µM). Also, the “RF (drug resistant factor)” value with KBv200 was 33.22; in the assay on MCF-7/Adr it was 59.07; in the assay with K562/Adr it was 65.39. For the same molecule, the “Resistance of K562/Adr relative to K562” value in the assay on K562/Adr (description of cell line) is 20 folds.

For the molecule `CC(=O)O[C@H]1C(=O)[C@@]2(C)[C@H]([C@H](OC(=O)c3ccccc3)[C@]3(O)C[C@H](OC(=O)[C@H](O)[C@@H](NC(=O)c4ccccc4)c4ccccc4)C(C)=C1C3(C)C)[C@]1(OC(C)=O)CO[C@@H]1C[C@@H]2O` [Taxol, paclitaxel], the IC50 was 1.348 ± 0.002 µg/mL (≈ 1.58 µM) in the assay on KBv200 (Homo sapiens, read-out: IC50); 0.743 ± 0.21 µg/mL (≈ 0.87 µM) in the assay on MCF-7/Adr (setting [1]); 0.032 ± 0.001 µg/mL (≈ 0.0375 µM) in the assay on KB (Homo sapiens, read-out: IC50); 0.0415 ± 0.003 µg/mL (≈ 0.0486 µM) in the assay with MCF-7 (setting [2]); 0.0247 ± 0.001 µg/mL (≈ 0.0289 µM) in the assay with K562 (Homo sapiens, read-out: IC50); 0.8225 ± 0.0073 µg/mL in the assay with K562/Adr cells. Moreover, the IC50 with MCF-7/Adr cells came to 0.906 ± 0.213 µg/mL; in the assay on KBv200 cells, 1.01 ± 0.0421 µg/mL; with K562/Adr (Homo sapiens, read-out: IC50) it was 0.932 ± 0.092 µg/mL (≈ 1.09 µM). In addition, the “RF (drug resistant factor)” value with KBv200 is 42.12; in the assay on MCF-7/Adr, 17.65; in the assay with K562/Adr, 37.72.

On to `CC[C@]1(O)C[C@H]2CN(CCc3c([nH]c4ccccc34)[C@@](C(=O)OC)(c3cc4c(cc3OC)N(C=O)[C@H]3[C@@](O)(C(=O)OC)[C@H](OC(C)=O)[C@]5(CC)C=CCN6CC[C@]43[C@@H]65)C2)C1` [VCR, Vincristine], for which the IC50 was determined as 21.3 ± 1.21 µg/mL (≈ 25.9 µM) with KBv200 (Homo sapiens, read-out: IC50); 18.6 ± 1.75 µg/mL (≈ 22.5 µM) with MCF-7/Adr (setting [1]); 0.153 ± 0.092 µg/mL (≈ 0.185 µM) in the assay on KB (Homo sapiens, read-out: IC50); 0.096 ± 0.014 µg/mL (≈ 0.116 µM) in the assay on MCF-7 (setting [2]); 0.218 ± 0.011 µg/mL (≈ 0.264 µM) in the assay on K562 (Homo sapiens, read-out: IC50); 12.1 ± 0.349 µg/mL in the assay with K562/Adr cells. For the same molecule, the half-inhibitory concentration (IC50) is 14.1 ± 1.95 µg/mL in the assay on MCF-7/Adr cells; 10.7 ± 0.992 µg/mL with KBv200 cells; 12.2 ± 0.576 µg/mL (≈ 14.7 µM) with K562/Adr (Homo sapiens, read-out: IC50). Further, the “RF (drug resistant factor)” value was 139.5 in the assay with KBv200, 193.75 with MCF-7/Adr and 55.73 in the assay with K562/Adr.
